In US6888016B2, “Mixtures for stimulating glucose up-take” (Loders Croklaan USA LLC, priority 2001, dated 2005):

Test system: 3T3-L1 adipocytes
Assay: Insulin stimulated glucose uptake (ISGU), [3H]2-deoxyglucose incorporation in differentiated adipocytes
Assay type: cell-based, Murine
Settings: 3 days incubation; for increase in glucose uptake in combination with CLA over CLA alone: compound A in combination with CLA, 1 nM insulin, significantly higher than CLA alone, P<0.05 Students T-test, FIG. 2
Method: Murine (3T3-L1 cells; ATCC CL-173) were seeded into multi-well plates and incubated in growth medium (DMEM supplemented with 10% FCS, 2 mM L-glutamine, 100 iu/ml penicillin and 100 μg/ml streptomycin) at 37° C./5% CO2 until 2 days post-confluence (day 0). Differentiation was carried out approximately according to Iwata et al (Diabetes 2001 50: 1083-1092). Briefly, differentiation was induced by changing to growth medium containing 3-isobutyl-1-methylxanthine (0.5 mM), dexamethasone (0.25 μM) and 1 μM insulin for 3 days, and then growth medium containing 0.8 μM insulin for another 3 days. Finally cells were retained in serum free growth medium until ready for experimentation, typically cells were used between days 6-9.
Pine nut oil (PNO) and palm kernel oil (PKO) fatty acids were prepared by saponification of pine nut oil or palm kernel oil. PNO contains high levels of PUFAs, in particular high levels of pinolenic acid. PKO has high levels of medium chain fatty acids (C8-12). All samples were prepared as 1 mg/ml stocks in ethanol and diluted in media accordingly with the following exceptions. IGF-1 was prepared by initially dissolving in […], followed by the addition of 400 μl PBS supplemented with 1 mg/ml BSA. This was diluted with media to the correct concentration. Ascorbic acid, sodium vanadate and aspartame were made up in DMEM.
Differentiated adipocytes were incubated for a period of 3 days in DMEM (containing 2 mM L-glutamine, 100 iu/ml penicillin, 100 μg/ml streptomycin, 1 nM insulin and 10% FCS) supplemented with or without CLA and/or compound As. The cells were then washed three times with DMEM (containing 1 mM deoxyglucose). Insulin stimulated glucose uptake was carried out according to Iwata et al (Diabetes 2001 50: 1083-1092). Briefly, cells were stimulated with 1 nM insulin in Krebs Ringer Phosphate (KRP) and HEPES buffer [10 mM HEPES, 131.2 mM NaCl, 4.7 mM KCl, 2.5 mM CaCl2, 1.2 mM MgSO4, 2.5 mM sodium phosphate buffer, pH 7.4] with 1% BSA at 37° C. […] Radioactive incorporation was measured by scintillation counting of 100 μl of each cell lysate. […]

Row | Compound | insulin stimulated glucose uptake (ISGU), effect of CLA alone (CLA fatty acids at 10 or 50 μg/ml, compared with control differentiated adipocytes, radiolabel incorporation (3H-DPM), FIG. 1) | increase in glucose uptake in combination with CLA over CLA alone [%]
1 | Conjugated linoleic acid [CLA] | reduces ISGU compared with the control | –
2 | O=C1O[C@H]([C@@H](O)CO)C(O)=C1O [Vit C, Ascorbic acid] | – | 20
3 | IGF-1: IGF-1, purified or in natural extracts; compound A | – | 39
